Test results reported in article PMC10223737, “Validation of Freshly Isolated Rat Renal Cells as a Tool for Preclinical Assessment of Radiolabeled Receptor-Specific Peptide Uptake in the Kidney” (Pharmaceuticals, 2023).
Where a SMILES comes first, the peptide text is derived from it. [ ]: non-standard residue; d: D form. The star is where a group is joined. DOTA = O=C(O)CN1CCN(CC(=O)O)CCN(CC(=O)*)CCN(CC(=O)O)CC1

How the values were obtained:
rat kidneys = settings: cited from earlier work; for radiopeptide uptake in rat kidneys in vivo: radioactivity in the kidneys 60 min after i.v. administration, rats
Description: The data on radiopeptide cellular uptake were compared with already available data on radiopeptide renal retention in rats in vivo, which were previously published by our team.

isolated rat renal cells [1] = assay: Active versus passive cellular accumulation in isolated rat renal cells (37 °C vs low temperature); type: in vitro ADME; settings: n = 4, Figure 6; for contribution of active accumulation to cell uptake: 37 °C (= 100%) vs low incubation temperature (2–4 °C)
Description: An experiment was arranged to test this cellular model's potential for investigating active membrane transport processes in radiopeptide renal accumulation. […] Using the same procedure as for the radiopeptides, we tested and expressed the uptake of the other studied compounds.

LLC-PK1 cells = assay: Cellular uptake in LLC-PK1 cells; type: in vitro ADME, porcine; settings: incubation time 30 min; Figure 5
Description: The cellular accumulation of two somatostatin receptor-specific analogs ([^111In]In -DOTA-TATE and [^111In]In -DOTA-NOC) was compared in two renal cellular models, OK cells and LLC-PK1 cells.

isolated rat renal cells [2] = assay: Radiopeptide uptake in freshly isolated rat renal cells; settings: 1 mL suspension 2.10^6/mL + 10 µL radiopeptide (1 µg/mL), 30 min, 37 °C, cells washed four times, gamma-counter
Description: Fresh rat renal cells were isolated from the kidney using the two-phase collagenase perfusion method described by Jones et al. [11]. Male Wistar rats weighing 270–330 g were used for the experiments. The rats were housed under standard conditions (tap water, standard diet, and a 12/12 h light–dark cycle). Animals were fasted for 18–24 h prior to experiments.
As a first step, rats were anesthetized (sodium pentobarbital, 50 mg/kg), the abdomen was opened, and the right renal artery and adjacent parts of the aorta were freed. Then, the right renal artery was cannulated via the aorta. Single-pass perfusion was conducted using oxygenated calcium-free Hanks’ buffer (pH 7.4) containing EGTA (0.5 mM) and Hepes (25 mM). The second perfusion phase was performed in a recirculation system with modified Hanks’ buffer containing CaCl2 (4 mM) and collagenase (0.10 % w/v) for 18–22 min. The kidneys were removed and dispersed in cold Krebs–Henseleit buffer with Hepes (25 mM) and bovine serum albumin (2% w/v). The resulting suspension was filtered and washed with Krebs–Henseleit buffer. Following centrifugation (3 min; 80 g; 4 °C), we used the trypan blue exclusion method to determine the number of cells in the suspension. […] As a result, the cell viability at the end of the 30 min incubation interval was >85%.
Standard incubations were conducted for 30 min at 37 °C using 1 mL of cell suspension containing 2.10^6/mL renal cells. The radiopeptide uptake was determined by mixing 1 mL of cell suspension and 10 µL of the radiopeptide (1 µg/mL). After incubation, the cells were washed four times and separated. The radioactivity of the cell fractions was measured as mentioned below.

| Compound | contribution of active accumulation to cell uptake (isolated rat renal cells [1]) | cellular accumulation in LLC-PK1 cells compared with OK cells (LLC-PK1 cells) | radiopeptide uptake in isolated rat cells (In Vitro) (isolated rat renal cells [2]) | radiopeptide uptake in rat kidneys in vivo (rat kidneys) | also measured |
| --- | --- | --- | --- | --- | --- |
| DTPA-DGlu-Glu-Glu-Glu-Glu-Glu-Ala-Tyr-Gly-Trp-Met-Asp-Phe-NH2 [[^111In]In-DTPA-MG0] |  |  |  |  | retention in the rat kidney in vivo (in words) (rat kidneys; rat, in vivo, iv): relatively high |
| [DOTA^0, D-Phe^1, 1-Nal^3]-octreotide (disulfide) [[^111In]In-DOTA-NOC] |  | significantly higher | 0.75 ± 0.09 %D/10^6 cells | 2.84 ± 0.28 [19] %D/g |  |
| [DOTA^0, Tyr^3, Thr^8]-octreotide [[^111In]In-DOTA-TATE] |  | relatively similar in both cell lines | 0.36 ± 0.10 %D/10^6 cells | 3.08 ± 0.42 [19] %D/g |  |
| CSCC[C@H](NC(=O)[C@H](Cc1c[nH]c2ccccc12)NC(=O)CNC(=O)[C@H](Cc1ccc(O)cc1)NC(=O)[C@H](C)NC(=O)[C@@H](CCC(=O)O)NC(=O)CN1CCN(CC(=O)O)CCN(CC(=O)O)CCN(CC(=O)O)CC1)C(=O)N[C@@H](CC(=O)O)C(=O)N[C@@H](Cc1ccccc1)C(N)=O [[^111In]In-DOTA-MG11, metal not drawn] ({DOTA}-[dE]AYGWMDF-NH2) |  |  | 0.16 ± 0.15 %D/10^6 cells | 0.84 ± 0.35 [21] %D/g |  |

Continued, in another order:

| contribution of active accumulation to cell uptake (isolated rat renal cells [1]) | Compound | cellular accumulation in LLC-PK1 cells compared with OK cells (LLC-PK1 cells) | radiopeptide uptake in isolated rat cells (In Vitro) (isolated rat renal cells [2]) | radiopeptide uptake in rat kidneys in vivo (rat kidneys) | also measured |
| --- | --- | --- | --- | --- | --- |
| lowest contribution | O=C(O)C(S)C(S)C(=O)O (stereo not drawn) [[^99mTc]Tc-DMSA, dimercaptosuccinate, metal not drawn] |  |  |  |  |
| highest contribution | mercaptoacetylglycylglycylglycine [[^99mTc]Tc-MAG3] |  |  |  | accumulation at the low incubation temperature (isolated rat renal cells [1]; 2–4 °C, active processes blocked): negligible accumulation |
